Measured values as given in ChEMBL document CHEMBL1201862, “PubChem BioAssay data set” (2004).
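Cells were grown in 96-well plates and exposed to each compound for 48 hours at five concentrations; endpoints were interpolated linearly between bracketing concentrations, or set to the highest concentration if not reached. GI50 = concentration required for 50% inhibition of growth.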 Active and inactive are the calls of the source. No stated cut-off is given here; in the data, active = GI50 up to about 1.1 µM and inactive = higher. Non-standard residues stand in square brackets, D forms with d. Residues, ends and D or L forms follow the SMILES beside them. *: point of attachment. hSer = N[CH](CCO)C(=O)O; Boc = CC(C)(C)OC(=O)*

Columns and labels:
Test in all cases: inhibition of tumour cell growth, NCI panel, 48 h
[1] = system: OVCAR-8
[2] = system: MOLT-4
[3] = system: M14
[4] = system: OVCAR-4
[5] = system: MDA-N
[6] = system: HOP-62
[7] = system: SR
[8] = system: UACC-257
[9] = system: HOP-92
[10] = system: BT-549
[11] = system: SF-295
[12] = system: SF-539
[13] = system: OVCAR-5
[14] = system: MDA-MB-231
[15] = system: HT-29
[16] = system: SNB-75
[17] = system: NCI-H226
[18] = system: SN12C
[19] = system: SF-268
[20] = system: IGROV-1

| Compound | GI50 [1] | GI50 [2] | GI50 [3] | GI50 [4] | GI50 [5] | GI50 [6] | GI50 [7] | GI50 [8] | GI50 [9] | GI50 [10] | GI50 [11] | GI50 [12] | GI50 [13] | GI50 [14] | GI50 [15] | GI50 [16] | GI50 [17] | GI50 [18] | GI50 [19] | GI50 [20] |
| --- | --- | --- | --- | --- | --- | --- | --- | --- | --- | --- | --- | --- | --- | --- | --- | --- | --- | --- | --- | --- |
| COC(=O)[C@@]12C(=O)C=CC(=O)[C@@H]1C1C(=CC2COC(C)=O)O[C@@H]2OC3(CCCCC3)O[C@H]12 (stereo partly specified) | 7.94 µM (inactive) | 3.29 µM (inactive) | 15.6 µM (inactive) | 5.24 µM (inactive) | 12.6 µM (inactive) | 19.8 µM (inactive) | 3.05 µM (inactive) | 16.3 µM (inactive) | 8.49 µM (inactive) | 13.2 µM (inactive) | 16.1 µM (inactive) | 10.4 µM (inactive) | 16.7 µM (inactive) | 19.5 µM (inactive) | 6.01 µM (inactive) | 13 µM (inactive) | 17.2 µM (inactive) | 15.5 µM (inactive) | 14.2 µM (inactive) | 16 µM (inactive) |
| Oc1c(C2=NNC(c3ccc(Cl)cc3Cl)C2)ccc2ccccc12 (stereo unspecified) | 29.4 µM (inactive) | 5.7 µM (inactive) | 26.5 µM (inactive) | 58.6 µM (inactive) | 19.5 µM (inactive) | 38.7 µM (inactive) | 8.38 µM (inactive) | 42.3 µM (inactive) | 31.7 µM (inactive) | 69.2 µM (inactive) | 28.3 µM (inactive) | 30.5 µM (inactive) | 42.7 µM (inactive) | 46.5 µM (inactive) | 31.4 µM (inactive) | 39.9 µM (inactive) | 50.4 µM (inactive) | 32.6 µM (inactive) | 33 µM (inactive) | 14.4 µM (inactive) |
| COc1ccc2c(c1)C(N)=C(c1ccccc1OC)C2=O | > 100 µM (inactive) | 75.7 µM (inactive) | > 100 µM (inactive) | 99.5 µM (inactive) | > 100 µM (inactive) | > 100 µM (inactive) | 29.9 µM (inactive) | > 100 µM (inactive) | > 100 µM (inactive) | > 100 µM (inactive) | > 100 µM (inactive) | > 100 µM (inactive) | > 100 µM (inactive) | > 100 µM (inactive) | > 100 µM (inactive) | 64.3 µM (inactive) | > 100 µM (inactive) | > 100 µM (inactive) | > 100 µM (inactive) | > 100 µM (inactive) |
| O=c1[nH]nc(Cc2ccc(Cl)cc2)n1/N=C/c1cccs1 | 27.5 µM (inactive) | > 100 µM (inactive) | > 100 µM (inactive) | > 100 µM (inactive) | > 100 µM (inactive) | 22.1 µM (inactive) | > 100 µM (inactive) | > 100 µM (inactive) | 24.6 µM (inactive) | 24.9 µM (inactive) | 18.9 µM (inactive) | 41.3 µM (inactive) | 73.3 µM (inactive) | 21.3 µM (inactive) | 14 µM (inactive) | 19.1 µM (inactive) | 43.5 µM (inactive) | 29.2 µM (inactive) | 15.9 µM (inactive) | 23.1 µM (inactive) |
| CC(C(=O)O)c1ccc(-c2ccccc2)c(F)c1 (stereo unspecified) [FLURBIPROFEN] | > 100 µM (inactive) | > 100 µM (inactive) | > 100 µM (inactive) | > 100 µM (inactive) | > 100 µM (inactive) | > 10 µM (inactive) | > 100 µM (inactive) | > 100 µM (inactive) | > 100 µM (inactive) | > 100 µM (inactive) | > 100 µM (inactive) | > 100 µM (inactive) | > 100 µM (inactive) | > 100 µM (inactive) | > 100 µM (inactive) | > 100 µM (inactive) | > 100 µM (inactive) | > 100 µM (inactive) | > 100 µM (inactive) | > 100 µM (inactive) |
| COc1ccc2nc3cc(Cl)ccc3c(NCCNCCCNC(=O)c3cc(-c4ccccc4)nc4ccccc34)c2c1 | > 100 µM (inactive) | > 100 µM (inactive) | > 100 µM (inactive) | > 100 µM (inactive) | 28.6 µM (inactive) | > 100 µM (inactive) | 38.3 µM (inactive) | > 100 µM (inactive) | > 100 µM (inactive) | > 100 µM (inactive) | > 100 µM (inactive) | > 100 µM (inactive) | > 100 µM (inactive) | > 100 µM (inactive) | 22.6 µM (inactive) | > 100 µM (inactive) | > 100 µM (inactive) | > 100 µM (inactive) | > 100 µM (inactive) | > 100 µM (inactive) |
| [N-]=[N+]=NC1C(O)C(CO)OC1n1ccc(=O)[nH]c1=O (stereo unspecified) | > 875 µM (inactive) | > 875 µM (inactive) | > 875 µM (inactive) | > 875 µM (inactive) | > 875 µM (inactive) | > 875 µM (inactive) | > 875 µM (inactive) | > 875 µM (inactive) | > 875 µM (inactive) | > 875 µM (inactive) | > 875 µM (inactive) | > 875 µM (inactive) | > 875 µM (inactive) | > 875 µM (inactive) | > 875 µM (inactive) | > 875 µM (inactive) | > 875 µM (inactive) | > 875 µM (inactive) | > 875 µM (inactive) | > 875 µM (inactive) |
| O=C1/C(=C/c2ccc(Cl)c(Cl)c2)CNC/C1=C\c1ccc(Cl)c(Cl)c1 | 3.92 µM (inactive) | 5.4 µM (inactive) | 15.8 µM (inactive) | 2.52 µM (inactive) | 20.4 µM (inactive) | 14.5 µM (inactive) | 3.96 µM (inactive) | 41.2 µM (inactive) | 22 µM (inactive) | 27.9 µM (inactive) | 9.2 µM (inactive) | 7.87 µM (inactive) | 18.3 µM (inactive) | 3.14 µM (inactive) | 5.35 µM (inactive) | 10.8 µM (inactive) | 21.9 µM (inactive) | 5.08 µM (inactive) | 3.95 µM (inactive) | 7.6 µM (inactive) |
| O=[N+]([O-])c1cccc(/N=N/c2c(O)c(S(=O)(=O)O)cc3cc(S(=O)(=O)O)ccc23)c1 | > 100 µM (inactive) | > 100 µM (inactive) | > 100 µM (inactive) | > 100 µM (inactive) | > 100 µM (inactive) | > 100 µM (inactive) | > 100 µM (inactive) | > 100 µM (inactive) | > 100 µM (inactive) | > 100 µM (inactive) | > 100 µM (inactive) | > 100 µM (inactive) | > 100 µM (inactive) | > 100 µM (inactive) | – | > 100 µM (inactive) | > 100 µM (inactive) | > 100 µM (inactive) | > 100 µM (inactive) | > 100 µM (inactive) |
| COc1cc2c(c(OC)c1OC)-c1ccc(OC)c(=O)cc1C(NC(=O)COc1ccccc1)CC2 (stereo unspecified) | < 0.01 µM (active) | < 0.01 µM (active) | < 0.01 µM (active) | 3.11 µM (inactive) | < 0.01 µM (active) | < 0.01 µM (active) | < 0.01 µM (active) | < 0.029 µM (active) | < 0.01 µM (active) | < 0.01 µM (active) | < 0.01 µM (active) | < 0.01 µM (active) | 0.3 µM (active) | < 0.01 µM (active) | < 0.01 µM (active) | < 0.01 µM (active) | < 0.0372 µM (active) | < 0.01 µM (active) | < 0.01 µM (active) | < 0.01 µM (active) |
| O=c1s[s+]([O-])c2ccccc12 (stereo unspecified) | > 100 µM (inactive) | > 100 µM (inactive) | > 100 µM (inactive) | > 100 µM (inactive) | > 100 µM (inactive) | > 100 µM (inactive) | > 100 µM (inactive) | > 100 µM (inactive) | > 100 µM (inactive) | > 100 µM (inactive) | > 100 µM (inactive) | > 100 µM (inactive) | > 100 µM (inactive) | > 100 µM (inactive) | > 100 µM (inactive) | > 100 µM (inactive) | > 100 µM (inactive) | > 100 µM (inactive) | – | > 100 µM (inactive) |
| CC12CCC([C@H](C(O)C3CCCCC3)C1=O)C2(C)C (stereo partly specified) | > 100 µM (inactive) | 44.3 µM (inactive) | > 100 µM (inactive) | > 100 µM (inactive) | > 100 µM (inactive) | > 100 µM (inactive) | 22.4 µM (inactive) | > 100 µM (inactive) | > 100 µM (inactive) | > 100 µM (inactive) | > 100 µM (inactive) | > 100 µM (inactive) | > 100 µM (inactive) | > 100 µM (inactive) | – | > 100 µM (inactive) | > 100 µM (inactive) | > 100 µM (inactive) | > 100 µM (inactive) | > 100 µM (inactive) |
| COc1ccc(Cc2cc(OC)c(OC)c(OC)c2)cc1O | 0.0769 µM (active) | 0.0211 µM (active) | 0.0255 µM (active) | 42.5 µM (inactive) | < 0.01 µM (active) | 0.109 µM (active) | 0.0194 µM (active) | 3.95 µM (inactive) | 0.119 µM (active) | < 0.01 µM (active) | 0.286 µM (active) | 0.0334 µM (active) | 68.1 µM (inactive) | 0.0122 µM (active) | 14.3 µM (inactive) | < 0.01 µM (active) | 36.7 µM (inactive) | 0.173 µM (active) | 0.122 µM (active) | 3.78 µM (inactive) |
| COCCC(NC(=O)C(CC(C)C)NC(=O)OC(C)(C)C)C(N)=O (stereo not drawn) (Boc-Leu-[hSer](Me)-NH2; configuration not given here) | > 100 µM (inactive) | > 100 µM (inactive) | > 100 µM (inactive) | > 100 µM (inactive) | > 100 µM (inactive) | > 100 µM (inactive) | > 100 µM (inactive) | > 100 µM (inactive) | > 100 µM (inactive) | > 100 µM (inactive) | > 100 µM (inactive) | > 100 µM (inactive) | – | > 100 µM (inactive) | > 100 µM (inactive) | > 100 µM (inactive) | > 100 µM (inactive) | > 100 µM (inactive) | > 100 µM (inactive) | > 100 µM (inactive) |
